Entries after “also recorded” stand apart in the source; their conditions may differ.
Test: Sensory panel assay of aqueous steviol glycoside solutions (roundtable consensus, descriptive analysis)
Assay type: in vivo
Details: 500 ppm in reverse osmosis water, panel of four; for Sensory Attribute Comments - Off-tastes (bitterness, metallic taste) / Sensory Attribute Comments - Sweetness (intensity / profile): compared against Reb A and Reb D/M
Protocol: Assays were carried out to characterize the sensory attributes, e.g., sweetness profile, of aqueous solutions of samples. Sensory attributes of the compositions were tested by a panel of individuals that are experienced in sensory testing. The experienced panelists assessed sensory attributes such as, but not limited to, bitterness, metallic notes, mouth drying, sweetness intensity, and sweetness linger. The panelists compared the sweeteners against Reb A and Reb D/M. To test each composition, the experienced panelists dispensed approximately 2-4 fl oz of each sample or solution into their own mouths, dispersed the solution by moving their tongues, and individually recorded a sensory attribute scale value. Between tasting solutions, the panelists were able to cleanse their palates with water and/or rice crackers.
Assays were carried out to characterize the sensory attributes of aqueous solutions. Sensory attributes were analyzed by a panel of four individuals using a roundtable consensus approach. All panelists used the assay method described above. The panelists provided a descriptive analysis of the samples. The sensory attributes of Reb A and Reb D/M are known, and thus Reb A and Reb D/M were used as comparative samples. The sweetness profile of Reb A is described in the art, for example in DuBois et al. (“Concentration—Repose Relationship of Sweeteners,” Sweeteners: Discovery, Molecular Design, and Chemoreception, Chapter 20, pages 261-276, American Chemical Society 1991).

SMILES: C=C1C[C@@]23CC[C@H]4[C@@](C)(CCC[C@@]4(C)C(=O)O[C@@H]4O[C@H](CO)[C@@H](O)[C@H](O)[C@H]4O)[C@@H]2CC[C@]1(O[C@@H]1O[C@H](CO)[C@@H](O)[C@H](O[C@@H]2O[C@H](CO)[C@@H](O)[C@H](O)[C@H]2O)[C@H]1O[C@@H]1O[C@H](CO)[C@@H](O)[C@H](O)[C@H]1O)C3 [Sample 3, rebaudioside A, reference compound]
- Sensory Attribute Comments - Off-tastes (bitterness, metallic taste): Off-tastes: Typical Reb A bitterness, metallic taste.
- Sensory Attribute Comments - Sweetness (intensity / profile): Sweetness: Sweetness profile typical of Reb A.

SMILES: C=C1C[C@@]23CC[C@H]4[C@@](C)(CCC[C@@]4(C)C(=O)O[C@@H]4O[C@H](CO)[C@@H](O)[C@H](O)[C@H]4O[C@@H]4O[C@H](CO)[C@@H](O)[C@H](O)[C@H]4O)[C@@H]2CC[C@]1(O[C@@H]1O[C@H](CO)[C@@H](O)[C@H](O[C@@H]2O[C@H](CO)[C@@H](O)[C@H](O)[C@H]2O)[C@H]1O[C@@H]1OC[C@@H](C)[C@H](O)[C@H]1O)C3 [Sample 1, rebaudioside EM]
- Sensory Attribute Comments - Off-tastes (bitterness, metallic taste): Off-tastes: Less bitter than Reb A.

SMILES: C=C1CC23CCC4C(C)(C(=O)OC5OC(CO)C(O)C(OC6OC(CO)C(O)C(O)C6O)C5OC5OCC(O)C(O)C5O)CCCC4(C)C2CCC1(OC1OC(CO)C(O)C(OC2OC(CO)C(O)C(O)C2O)C1OC1OC(CO)C(O)C(O)C1O)C3 (stereo not drawn) [Sample 2, rebaudioside V2]
- Sensory Attribute Comments - Sweetness onset and rise: (Reb D/M). Slight delay in onset (less delay than Sample; also recorded: very rapid rise
- Sensory Attribute Comments - Off-tastes (bitterness, metallic taste): Off-tastes: Very faint bitterness. Quite clean sweetness.
- Sensory Attribute Comments - Sweetness (intensity / profile): Sweetness: Higher peak sweetness than Sample 5
